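Grown in 96-well plates, cells were treated for 48 hours with each compound at five concentrations. Insufficient inhibition: endpoint recorded as highest concentration tested. GI50 is the concentration that inhibits growth by half.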 Calls of active or inactive are those of the source. Rule as the data show it: active = GI50 up to about 1.1 µM and inactive = higher. Where only a bound is given, the exact number is not on record here.

Nine compounds from ChEMBL document CHEMBL1201862, “PubChem BioAssay data set” (2004) can be followed below.

Among the test systems are ACHN; Malme-3M; NCI-H226; NCI-H522; CAKI-1; UO-31; U-251; MDA-N; UACC-257; PC-3; K562; SF-539; SF-295; CCRF-CEM; UACC-62; DU-145; SR; Hs-578T; OVCAR-8.
Holding throughout (assay): growth of human tumour cells (NCI), 48 h

Consider `C[C@@H]1OC(=O)/C(=C\N(C)C)[C@H]2CC(=O)N(CCc3cn(S(=O)(=O)C(F)(F)F)c4ccccc34)C[C@H]12`, for which the GI50 in the experiment with ACHN, in the experiment with Malme-3M, in the experiment with NCI-H226, in the experiment on NCI-H522, with CAKI-1 and with UO-31 was > 100 µM (inactive) each time. The GI50 in the experiment on U-251, in the experiment with MDA-N, in the experiment with UACC-257, in the experiment on PC-3, in the experiment with K562 and with SF-539 was > 100 µM (inactive) in each case. In addition, the GI50 in the experiment with SF-295 is > 100 µM (inactive).
With `Cc1ccc(SC[C@@]2(C(F)F)NC(=O)NC2=O)cc1`, the GI50 in the experiment with ACHN, with Malme-3M, in the experiment on NCI-H226, in the experiment with CCRF-CEM, with NCI-H522 and in the experiment with CAKI-1 was > 100 µM (inactive) throughout. The GI50 in the experiment on UACC-62, in the experiment on UO-31, with U-251, with DU-145, in the experiment on UACC-257 and in the experiment with SR was > 100 µM (inactive) each time. Further, the GI50 in the experiment on PC-3, with Hs-578T, with K562, with SF-295 and in the experiment with OVCAR-8 was > 100 µM (inactive) throughout.
For the compound `O=Cc1ccc(-c2cccc([N+](=O)[O-])c2)s1`, the GI50 in the experiment with ACHN is > 100 µM (inactive); with NCI-H226 it was 67.5 µM (inactive); in the experiment on CCRF-CEM, 96.2 µM (inactive); in the experiment with NCI-H522, > 100 µM (inactive); in the experiment on CAKI-1, > 100 µM (inactive); in the experiment on UACC-62 it was > 100 µM (inactive). For the same compound, the GI50 is 65.8 µM (inactive) in the experiment with UO-31; 45.4 µM (inactive) in the experiment on U-251; 61 µM (inactive) with DU-145; > 100 µM (inactive) in the experiment with UACC-257; 56.5 µM (inactive) in the experiment on SR; > 100 µM (inactive) with PC-3. Also, the GI50 in the experiment with Hs-578T is 53.6 µM (inactive); with K562, 72.1 µM (inactive); in the experiment with SF-539 it was > 100 µM (inactive); in the experiment with SF-295, > 100 µM (inactive); in the experiment with OVCAR-8, 80.9 µM (inactive).
Take `C(/C=N/c1ccccc1)=C(/Nc1ccccc1)c1ccc2ccccc2c1`: the GI50 was 2.39 µM (inactive) in the experiment with ACHN; 1.78 µM (inactive) in the experiment with Malme-3M; 1.77 µM (inactive) in the experiment with NCI-H226; 1.1 µM (active) with CCRF-CEM; 3.87 µM (inactive) in the experiment with NCI-H522; 0.667 µM (active) in the experiment with CAKI-1. Besides, the GI50 in the experiment with UACC-62 was 0.548 µM (active); in the experiment with UO-31 it was 3.13 µM (inactive); with U-251 it was 2.65 µM (inactive); in the experiment with DU-145, 2.02 µM (inactive); in the experiment with UACC-257, 4.55 µM (inactive); with SR it was 0.676 µM (active). For the same compound, the GI50 in the experiment with PC-3 was 1.55 µM (inactive); with Hs-578T it was 2.58 µM (inactive); in the experiment with K562, 0.897 µM (active); in the experiment on SF-539, 1.83 µM (inactive); in the experiment with SF-295 it was 1.47 µM (inactive); in the experiment on OVCAR-8, 3.61 µM (inactive).
Consider `COc1ccc2c(c1)CC[C@@H]1[C@@H]2CC[C@]2(C)C(=O)/C(=C/c3cc(OC)c(OC)c(OC)c3)C[C@@H]12`, for which the GI50 in the experiment on ACHN is 21.7 µM (inactive); with Malme-3M, 17.8 µM (inactive); in the experiment with CAKI-1 it was 27.7 µM (inactive); with UACC-62, 30.2 µM (inactive); with UO-31, 47.2 µM (inactive); in the experiment on U-251, 34.8 µM (inactive). In addition, the GI50 in the experiment on DU-145 is 42.4 µM (inactive); in the experiment on SR, 15.2 µM (inactive); in the experiment on PC-3, 14 µM (inactive); in the experiment on SF-539, 28.2 µM (inactive); in the experiment on SF-295, 29.4 µM (inactive).
Turning to `CC1(C)C[C@H]2C3=CC[C@@H]4[C@@]5(C)CC[C@H](O)C(C)(C)[C@@H]5CC[C@@]4(C)[C@]3(C)C[C@@H](O)[C@@]23C[C@@H]1OC3=O`, the GI50 is > 100 µM (inactive) with ACHN; > 100 µM (inactive) in the experiment on Malme-3M; > 100 µM (inactive) in the experiment with CCRF-CEM; 56.5 µM (inactive) with NCI-H522; > 100 µM (inactive) with CAKI-1; > 100 µM (inactive) in the experiment on UACC-62. In addition, the GI50 in the experiment on UO-31 is > 100 µM (inactive); with U-251 it was > 100 µM (inactive); in the experiment with DU-145 it was > 100 µM (inactive); in the experiment on UACC-257 it was > 100 µM (inactive); in the experiment on SR it was > 100 µM (inactive); in the experiment with PC-3, 68.1 µM (inactive). Moreover, the GI50 is > 100 µM (inactive) in the experiment with Hs-578T; 97.1 µM (inactive) in the experiment on K562; > 100 µM (inactive) in the experiment on SF-539; 74.6 µM (inactive) in the experiment on SF-295; > 100 µM (inactive) in the experiment with OVCAR-8.
In the case of `NC(=O)CCCC(NCc1c2ccccc2nc2ccccc12)C(=O)O` (centres undefined), the GI50 in the experiment on ACHN was 49.8 µM (inactive); in the experiment with Malme-3M, 77.1 µM (inactive); in the experiment with NCI-H226, > 100 µM (inactive); in the experiment on CCRF-CEM it was 22.2 µM (inactive); in the experiment on NCI-H522, 22.6 µM (inactive); with CAKI-1, 27.5 µM (inactive). For the same compound, the GI50 in the experiment on U-251 is > 100 µM (inactive); in the experiment with UACC-257, 85.1 µM (inactive); in the experiment on SR, 25.9 µM (inactive); with K562 it was 26.6 µM (inactive); in the experiment on SF-539, 32.7 µM (inactive); in the experiment with SF-295, 83.4 µM (inactive). Moreover, the GI50 in the experiment with OVCAR-8 is 42.7 µM (inactive).
As to `Cc1cc(N(CCC#N)CCC#N)ccc1/C=C/C(=O)Nc1ccccc1Cl`, the GI50 in the experiment with ACHN was > 100 µM (inactive); in the experiment with Malme-3M it was > 100 µM (inactive); in the experiment with NCI-H226, > 100 µM (inactive); in the experiment on CCRF-CEM it was 45.5 µM (inactive); with NCI-H522 it was > 100 µM (inactive); with CAKI-1, > 100 µM (inactive). Besides, the GI50 with UACC-62, in the experiment with UO-31, with U-251, with UACC-257, with K562 and in the experiment on SF-539 was > 100 µM (inactive) in each case. The GI50 with SF-295 and in the experiment with OVCAR-8 was > 100 µM (inactive) throughout.
For `CC(=O)N(C)C=C1C(=O)N(C)C(=O)N(C)C1=O`, the GI50 with ACHN, in the experiment on Malme-3M, in the experiment with NCI-H226, in the experiment with CCRF-CEM, in the experiment with CAKI-1 and in the experiment with UACC-62 was > 100 µM (inactive) in each case. The GI50 in the experiment on UO-31, with U-251, in the experiment with UACC-257, with SR, in the experiment on K562 and with SF-539 was > 100 µM (inactive) in each case. Moreover, the GI50 with SF-295 and with OVCAR-8 was > 100 µM (inactive) each time.
